Source: patent publication US9993494B2, “Compositions and methods for treating fibrotic disease” (eFFECTOR Therapeutics, Inc., priority 2014, dated 2018)

Columns and labels:
[1] = tested on: normal human lung fibroblasts; test: Procollagen Type 1 C-Peptide (PIPC) EIA in culture media of TGFβ-treated fibroblasts; type: cell-based; conditions: for % Renormalization Collagen: fibroblasts treated with TGFβ, procollagen ELISA
Method: (§1) Briefly, normal human lung fibroblasts (Lonza #CC-2512; cell passage numbers 2 through 5 were used for all experiments) were seeded (Day 0) and cultured in Dulbecco's modified Eagle medium (DMEM) supplemented with 10% fetal bovine serum (FBS), penicillin, streptomycin and glutamax (Invitrogen) at 37° C. in a humidified incubator with 5% CO2 overnight. On Day 1, cells were harvested, washed with phosphate buffered saline (PBS), and then incubated for 48 hours in fresh serum-free DMEM supplemented with penicillin, streptomycin, and glutamax.
(§2) After this 24 hour incubation, procollagen type 1 levels were measured by collecting culture media, centrifuging to pellet cellular debris, and stored at −80° C. Procollagen Type 1 C-Peptide (PIPC) was quantified using the (PIP) EIA kit (Clontech, Cat. No. MK101) according to manufacturer's instructions. The TGFβ-treated fibroblasts of this example were examined by ribosomal profiling (about 6×10^6 cells/10 cm plate) and western blot analysis (about 1×10^6 cells/well of a 6-well plate).
as §1, with “(Lonza;” for “(Lonza #CC-2512;”, “CO2 conditions” for “CO2”, “glutamax. On Day 3, cells were harvested, resuspended in fresh serum-free DMEM containing silvestrol (1, 5, 10, 75, 100, 500, or 1000 nM) and 10 ng/ml TGFβ, and cultured for 24 hours. Controls included untreated cells and cells treated with only TGFβ.” for “glutamax.”
as §2, with “kit (Clontech)” for “kit (Clontech, Cat. No. MK101)”, “example are” for “example were”
The levels of α-SMA and procollagen type 1, markers of fibroblast transdifferentiation into myofibroblasts and a surrogate for fibrotic disease progression, were measured after a 24 hour incubation of fibroblasts in the presence or absence of TGFβ sieIF4A1 or siCont. The knockdown efficiency was determined by quantitating the eIF4A mRNA level by qPCR (data not shown) and assessing the protein level by western analysis (see FIG. 11).

[2] = tested on: normal human lung fibroblasts; test: Western blot of α-smooth muscle actin (α-SMA) in TGFβ-treated fibroblasts; type: cell-based; conditions: for % Renormalization α-SMA: fibroblasts treated with TGFβ; for % Renormalization α-SMA / TGFβ-induced α-SMA protein level: western blot
Method: as §1, §2
(§3) TGFβ-dependent activation of the PI3K/Akt/mTOR and ERK pathways were also examined by western blot analysis (about 1×10^6 cells/well from a 6-well plate). Briefly, cells were washed with PBS and lysed in 1× cell lysis buffer (Cell Signaling Technology, Inc., Danvers, Mass.) for 15 minutes at 4° C. Lysates were briefly sonicated, clarified by centrifugation for 15 minutes at 14,000 rpm, and then supernatants were collected. Protein concentration in the soluble fraction was determined by BCA protein assay (Thermo Scientific, Rockford, Ill.). Samples of protein (20 μg) were resolved on 4-20% Bis-Tris gradient gel (Invitrogen, Carlsbad, Calif.) and transferred to nitrocellulose membrane. The resulting blots were blocked for 1 hour at room temperature with Odyssey blocking solution (LI-COR) and then incubated with primary antibodies at 4° C. overnight. The following day, each blot was washed three times for 10 minutes in TBST, and then incubated with goat anti-rabbit fluorescent conjugated secondary antibody (IRDye 800 CW at 1:20,000; LI-COR) for 1 hour at room temperature. The blots were washed and scanned, and then specific proteins were detected by using the LI-COR Odyssey infrared imager. The following antibodies were used at 1:1000 dilution: anti-α-actin (Sigma #A2547), anti-phospho-4EBP(Ser65), anti-phospho-rpS6(Ser235/236)(#4858), anti-phospho-ERK1/2(Thr202/Tyr204)(#4370), anti-phospho-p70S6K(Thr421/Ser424)(#9204), anti-phospho-pAKT(Ser473), anti-phospho-MNK(Thr197/202), and anti-β-actin (#4970). Unless otherwise indicated, the antibodies were from Cell Signaling Technology, Inc. (Danvers, Mass.).
as §1, with “(Lonza;” for “(Lonza #CC-2512;”, “CO2 conditions” for “CO2”, “glutamax. On Day 3, cells were harvested, resuspended in fresh serum-free DMEM containing silvestrol (1, 5, 10, 75, 100, 500, or 1000 nM) and 10 ng/ml TGFβ, and cultured for 24 hours. Controls included untreated cells and cells treated with only TGFβ.” for “glutamax.”
as §2, with “kit (Clontech)” for “kit (Clontech, Cat. No. MK101)”, “example are” for “example were”

[3] = tested on: AKT, 4EBP, S6K, and S6 of the mTOR pathway; test: Western blot of TGFβ-dependent phosphorylation of PI3K/Akt/mTOR and ERK pathway proteins; type: cell-based, human; conditions: PP242 0.625 μM, co-incubation with TGFβ, FIG. 2
Method: as §3, with “The following antibodies were used at 1:1000 dilution: anti-α-actin (Sigma #A2547), anti-phospho-4EBP(Ser65), anti-phospho-rpS6(Ser235/236)(#4858), anti-phospho-ERK1/2(Thr202/Tyr204)(#4370), anti-phospho-p70S6K(Thr421/Ser424)(#9204), anti-phospho-pAKT(Ser473), anti-phospho-MNK(Thr197/202), and anti-β-actin (#4970). Unless otherwise indicated, the antibodies were from Cell Signaling Technology, Inc. (Danvers, Mass.).” left out

SMILES	% Renormalization Collagen ([1]; 24 hours)	% Renormalization α-SMA ([2]; 24 hours)	EC50 ([1]; Homo sapiens, Fibroblast, 24 h, read-out: EC50 for blocking the TGFβ-induced increase in procollagen production) [nM]	extent of inhibition of procollagen at higher concentrations, of untreated TGFβ-transformed myofibroblasts ([1]; higher concentrations, saturable, 10 ng/ml TGFβ, 24 hours)	inhibition of procollagen relative to untreated, untransformed control fibroblasts ([1]; higher concentrations, 10 ng/ml TGFβ, 24 hours)	ratio of α-SMA to β-actin at higher silvestrol concentrations ([2]; 10 ng/ml TGFβ, 24 hours, FIG. 10)	TGFβ-induced α-SMA protein level ([2]; 10 ng/ml TGFβ, 24 hours)	EC50 ([2]; Homo sapiens, Fibroblast, 24 h, read-out: EC50 for reduction of the α-SMA protein level) [nM]	α-SMA level ([2]; PP242 0.625 μM, co-incubation with TGFβ, FIG. 2)	TGFβ-dependent increases in phosphorylation of AKT, 4EBP, S6K, and S6 [3]
Cc1ccc(=O)n(-c2ccccc2)c1 [pirfenidone, 5-methyl-1-phenylpyridin-2-one]	+++ (+++ = >60%)	+++ (+++ = >60%)								
CC(C=CC(=O)NO)=CC(C)C(=O)c1ccc(N(C)C)cc1 (stereo not shown) [TSA, 7-[4-(dimethylamino)phenyl]-N-hydroxy-4,6-dimethyl-7-oxohepta-2,4-dienamide]	+++ (+++ = >60%)	++ (++ = 30-60%)								
Cc1cc(C2CCCCC2)n(O)c(=O)c1.NCCO [CPX, ciclopirox oloamine]	+++ (+++ = >60%)	+++ (+++ = >60%)								
COC(=O)[C@H]1[C@@H](O)[C@@]2(O)c3c(OC)cc(O[C@@H]4O[C@@H]([C@H](O)CO)CO[C@H]4OC)cc3O[C@@]2(c2ccc(OC)cc2)[C@@H]1c1ccccc1 [Silvestrol]	+++ (+++ = >60%)	+++ (+++ = >60%)	~12	about 90%	about 80%	the same as in untransformed, untreated fibroblasts	reduction of the α-SMA protein level in a dose dependent manner	~11		
CC(C)n1nc(-c2cc3cc(O)ccc3[nH]2)c2c(N)ncnc21 [PP242]	+++ (+++ = >60%)	+++ (+++ = >60%)					reduction of the α-SMA protein level in a dose dependent manner		decrease in α-SMA to pretreatment levels	sufficient to abolish
